These results are taken from US20170121351A1, “Synthesis of Zinc-Lysine Complex From Zinc Chloride” (Colgate-Palmolive Company, priority 2014, published 2017).

This data set in a line: Zeta potential. Format: physicochemical. The method, then:
In certain embodiments, the ZLC, e.g., any of Complex 2, et seq. can have a zeta potential on the order of +10 to +60, e.g., between +20 and +50. Zeta potential is measured as described below. The zeta potential indicates the degree of repulsion between adjacent, similarly charged particles in a dispersion. For molecules and particles that are small enough to be influenced by […], a high zeta potential will tend to confer stability, i.e., the particles will tend to repel one another, and the solution or dispersion will resist aggregation. When the zeta potential is low, attraction exceeds repulsion and the dispersion will break and flocculate. Here, it is desirable to have a zeta potential that is high enough in formulation to deter aggregation, but low enough to allow flocculation and blockage of the pores. […] Having a similar zeta potential, the ZLC, e.g., any of Complex 2, et seq. will behave similarly and flocculate when introduced into a pore and becomes hydrated. In contrast, zinc chloride has a zeta potential of about 0, which is much lower than current antiperspirant salts and the current disclosure.

Structures are written as SMILES.

As for `[Cl-].[Cl-].[Zn+2]` [zinc chloride], the zeta potential result is on record as “about 0”.
